Counter-ions that a name gives are not always drawn. Like-named read-outs stand apart in the source and are kept apart here.
Key:
[1] = target: T1, Human gelatinase-A (MMP-2) (Homo sapiens, UniProt P08253); experiment: MMP inhibition, internal fluorescence quenching method (MCA peptide substrate); format: biochemical
T1 sequence (P08253 110-660): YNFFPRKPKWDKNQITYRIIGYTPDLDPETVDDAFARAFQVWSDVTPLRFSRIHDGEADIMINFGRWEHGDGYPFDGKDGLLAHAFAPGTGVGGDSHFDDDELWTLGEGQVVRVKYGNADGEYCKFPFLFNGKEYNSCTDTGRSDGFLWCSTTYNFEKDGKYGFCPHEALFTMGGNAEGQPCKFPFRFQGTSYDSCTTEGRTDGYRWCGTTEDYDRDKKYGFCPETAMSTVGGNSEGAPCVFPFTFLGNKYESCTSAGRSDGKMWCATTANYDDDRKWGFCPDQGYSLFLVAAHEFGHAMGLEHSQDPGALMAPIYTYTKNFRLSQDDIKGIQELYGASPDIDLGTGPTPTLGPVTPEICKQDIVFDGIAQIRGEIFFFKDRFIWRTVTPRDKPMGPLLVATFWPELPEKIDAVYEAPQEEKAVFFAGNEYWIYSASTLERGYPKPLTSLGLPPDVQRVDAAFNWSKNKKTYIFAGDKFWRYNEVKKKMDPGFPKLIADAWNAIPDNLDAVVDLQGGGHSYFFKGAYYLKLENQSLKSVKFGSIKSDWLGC
Experimental: (§1) The inhibitory activity of the compounds of the present invention was evaluated in vitro against one or more of the MMP enzymes (gelatinases, collagenases, stromelysins) using the internal fluorescence quenching method. The assay method is based on the hydrolysis of the MMP substrate, MCA-Pro-Leu-Gly-Leu-DPA-Ala—Arg-NH2 at 37° C. (see Knight, C. G. et al., FEBS Lett. 296:263-266, 1992). The enzymes cleave at the Gly-Leu bond removing the internally quenching DPA group. The release of the highly fluorescent peptide MCA-Pro-Leu was monitored with a LS50 Perkin Elmer fluorimeter equipped with a Peltier-thermostated cell holder using an excitation wavelength of 326 nm and an emission wavelenght of 398 nm. Slis were set at 14/14. Proper determination of steady-state rates of substrate cleavage required a preincubation at 37° C. of 15 minutes to allow for complete equilibration of the enzyme-inhibitor complex. […] Rates of substrate hydrolysis, expressed as fluorescence arbitrary units per minute, were calculated by least-square analysis of the steady-state linear progression curves. The steady-state rates were fitted to the Michaelis equation describing competitive inhibition; in particular, Ki,app were determined by fining the data to the tight-binding equation of Morrison (Biochem. Biophys. Acta, 185:269-286, 1969) by non-linear methods.
(§2) Human gelatinase-A (MMP-2) was obtained as penzyme (72 kDa) and was activated with 1 mM 4-aminophenylmercuric acetate for 30 min at 37° C. immediately prior to use. The inhibitor was diluted into the assay from a stock solution in 100% DMSO, and controls substituted an equal volume of DMSO so that the final DMSO concentration from inhibitor and substrate dilution in all assays was 1%. The concentration of MMP-2 was 19.2 picoM. For compounds of formula (I) where X is —OH, the assay buffer was 50 mM Tris/HCl pH 6.5 containing 150 mM NaCl, 10 mM CaCl2, 0.01 mM ZnCl2 and 0.05% Brij35 (Protocol A). Other conditions were as stated above.
The compounds of formula (I) where X is —NHOH were tested against MMP-2 and MMP-1 under the conditions stated above, but the assay solution was buffered at pH 7.4 (Protocol B).

[2] = target: T2, Human fibroblast collagenase (MMP-1) (Homo sapiens, UniProt P03956); experiment: as above; format: biochemical
T2 sequence (P03956 101-269): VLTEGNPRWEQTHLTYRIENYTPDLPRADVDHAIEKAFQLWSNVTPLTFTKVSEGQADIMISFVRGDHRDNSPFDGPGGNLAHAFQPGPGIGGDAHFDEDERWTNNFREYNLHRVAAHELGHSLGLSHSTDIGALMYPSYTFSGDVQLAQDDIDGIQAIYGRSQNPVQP
Experimental: as §1, §2
Assay conditions were the same as above, but enzyme concentration was 200 picoM.

[3] = Protocol A: Tris/HCl pH 6.5, 37° C., MMP-2 19.2 picoM, substrate 3 μM, carboxylic acids, read-out: MMP-2 Ki
[4] = Protocol A: pH 6.5, 37° C., enzyme 200 picoM, substrate 3 μM, carboxylic acids, read-out: MMP-1 Ki
[5] = Protocol B: pH 7.4, 37° C., hydroxamic acids (X is —NHOH), read-out: MMP-1 Ki (picoM)
[6] = Protocol B: pH 7.4, 37° C., hydroxamic acids (X is —NHOH), read-out: MMP-2 Ki (picoM)

SMILES | Ki [1, 3] | Ki [2, 4] | also measured
O=C(O)C(CSc1ccccc1)CS(=O)(=O)c1ccc(-c2ccc(Cl)cc2)cc1 (single isomer, unassigned) [3, Isomer 2] | 660 nM | – | –
CN1C(=O)N(CC(CS(=O)(=O)c2ccc(-c3ccc(Cl)cc3)cc2)C(=O)O)C(=O)C1(C)C (single isomer, unassigned) [6, Isomer 2] | 50 nM | – | –
O=C(NO)C(CSc1ccccc1)CS(=O)(=O)c1ccc(-c2ccc(Cl)cc2)cc1 (stereo not shown) [Example 4, 3-[(4′-chloro[1,1′-biphenyl]-4-yl)sulfonyl]-N-hydroxy-2-[(phenylsulfanyl)methyl]propanamide] | – | – | Ki [2, 5]: 149 nM; Ki [1, 6]: 0.159 nM
CN1C(=O)N(CC(CS(=O)(=O)c2ccc(-c3ccccc3)cc2)C(=O)O)C(=O)C1(C)C (stereo not shown) [Example 7] | 42 nM | – | melting point: > 200 °C (dec.)
CN1C(=O)N(CC(CS(=O)(=O)c2ccc(-c3ccc(Cl)cc3)cc2)C(=O)NO)C(=O)C1(C)C (stereo not shown) [Example 8, 3-[(4′-chloro[1,1′-biphenyl]-4-yl)sulfonyl]-N-hydroxy-2-[(3,4,4-trimethyl-2,5-dioxo-1-imidazolidinyl)methyl]propanamide] | – | – | Ki [2, 5]: 26.8 nM; Ki [1, 6]: 0.107 nM
CC1(C)NC(=O)N(CC(CS(=O)(=O)c2ccc(-c3ccc(Cl)cc3)cc2)C(=O)NO)C1=O (stereo not shown) [Example 10, 3-[(4′-chloro[1,1′-biphenyl]-4-yl)sulfonyl]-N-hydroxy-2-[(4,4-dimethyl-2,5-dioxo-1-imidazolidinyl)methyl]propanamide] | – | – | Ki [2, 5]: 12.6 nM; Ki [1, 6]: 0.05 nM
N#Cc1ccc(-c2ccc(S(=O)(=O)CC(CSc3ccccc3)C(=O)O)cc2)cc1 (stereo not shown) [Example 19, 3-[(4′-cyano[1,1′-biphenyl]-4-yl)sulfonyl]-2-[(phenylsulfanyl)methyl]propanoic acid] | 17 nM | – | –
N#Cc1ccc(-c2ccc(S(=O)(=O)CC(COc3ccccc3)C(=O)O)cc2)cc1 (stereo not shown) [Example 29, 3-[(4′-cyano[1,1′-biphenyl]-4-yl)sulfonyl]-2-(phenoxymethyl)propanoic acid, sodium salt] | 21.5 nM | – | –
CC(=O)Nc1ccc(OCC(CS(=O)(=O)c2ccc(-c3ccc(Cl)cc3)cc2)C(=O)O)cc1 (stereo not shown) [Example 30, 3-[(4′-chloro[1,1′-biphenyl]-4-yl)sulfonyl]-2-[(4-acetylaminophenoxy)methyl]propanoic acid] | 46 nM | 19600 nM | –
Cc1nnc(SCC(CS(=O)(=O)c2ccc(-c3ccc(Cl)cc3)cc2)C(=O)O)s1 (stereo not shown) [Example 36, 3-[(4′-chloro[1,1′-biphenyl]-4-yl)sulfonyl]-2-[[(S-methyl-1,3,4-thiadiazol-2-yl)sulfanyl]methyl]propanoic acid.] | 33.4 nM | – | –
O=C(O)C(CSc1nc2ccccc2[nH]1)CS(=O)(=O)c1ccc(-c2ccc(Cl)cc2)cc1 (stereo not shown) [Example 37, 3-[(4′-chloro[1,1′-biphenyl]-4-yl)sulfonyl]-2-[(1H-benzimidazol-2-yl-sulfanyl)methyl]-propanoic acid] | 18.2 nM | – | –

The remaining compounds from weak to strong by Ki [1, 3], led by results:

Ki [1, 3] | Ki [2, 4] | SMILES | also measured
16 nM | – | Cn1ccnc1SCC(CS(=O)(=O)c1ccc(-c2ccc(Cl)cc2)cc1)C(=O)O (stereo not shown) [Example 25, 3-[(4′-chloro[1,1′-biphenyl]-4-yl)sulfonyl]-2-[[(1-methyl-1H-imidazol-2-yl)sulfanyl]methyl]propanoic acid] | –
15 nM | – | O=C(O)C(COc1ccccc1CO)CS(=O)(=O)c1ccc(-c2ccc(Cl)cc2)cc1 (stereo not shown) [Example 33, 3-[(4′-chloro[1,1′-biphenyl]-4-yl)sulfonyl]-2-[[2-(hydroxymethyl)phenoxy]-methyl]propanoic acid] | –
12 nM | 5290 nM | CCCCN1CC(=O)N(CC(CS(=O)(=O)c2ccc(-c3ccc(Cl)cc3)cc2)C(=O)O)C1=O (stereo not shown) [Example 13] | –
9.2 nM | 14700 nM | O=C(O)C(COc1ccccc1)CS(=O)(=O)c1ccc(-c2ccc(Cl)cc2)cc1 (stereo not shown) [Example 17, 3-[(4′-Chloro[1,1′-biphenyl]-4-yl)sulfonyl]-2-(phenoxymethyl)propanoic acid, sodium salt] | –
9 nM | 9700 nM | O=C(O)C(CSc1ccc(O)cc1)CS(=O)(=O)c1ccc(-c2ccc(Cl)cc2)cc1 (stereo not shown) [Example 16, 3-[(4′-chloro[1,1′-biphenyl]-4-yl)sulfonyl]-2-[[(4-hydroxyphenyl)sulfanyl]methyl]propanoic acid] | –
8.3 nM | – | O=C(O)C(CSc1ccccc1)CS(=O)(=O)c1ccc(-c2ccc(Cl)cc2)cc1 (racemic) [Example 1, 3-[(4′-chloro[1,1′-biphenyl]-4-yl)sulfonyl]-2-[(phenylsulfanyl)methyl]propanoic acid] | melting point: 158 to 162 °C
8 nM | – | O=C(Nc1ccc(S(=O)(=O)CC(CSc2cccs2)C(=O)O)cc1)c1ccccc1 (stereo not shown) [Example 14, 3-[[4-(Benzoylamino)phenyl]sulfonyl]-2-[(2-thienylsulfanyl)methyl]propanoic acid] | –
7.8 nM | – | CCCCN1C(=O)CN(CC(CS(=O)(=O)c2ccc(-c3ccc(Cl)cc3)cc2)C(=O)O)C1=O (stereo not shown) [Example 18, 3-[(4′-chloro[1,1′-biphenyl]-4-yl)sulfonyl]-2-[(3-butyl-2,4-dioxo-1-imidazolidinyl)methyl]propanoic acid] | –
7 nM | 81100 nM | O=C(Nc1ccc(S(=O)(=O)CC(CSc2ccccc2)C(=O)O)cc1)c1ccccc1 (stereo not shown) [Example 15, 3-[[4-(Benzoylamino)phenyl]sulfonyl]-2-[(phenylsulfanyl)methyl]propanoic acid] | –
6 nM | – | O=C(O)C(CSc1ccccc1)CS(=O)(=O)c1ccc(-c2ccc(Cl)cc2)cc1 (single isomer, unassigned) [3, Isomer 1] | –
5.5 nM | > 2000 nM | CN1C(=O)N(CC(CS(=O)(=O)c2ccc(-c3ccc(Cl)cc3)cc2)C(=O)O)C(=O)C1(C)C (racemic) [Example 5, 3-[(4′-chloro[1,1′-biphenyl]-4-yl)sulfonyl]-2-[(3,4,4-trimethyl-2,5-dioxo-1-imidazolidinyl)methyl]propanoic acid] | –
4.8 nM | 67500 nM | N#Cc1ccc(C(=O)Nc2ccc(S(=O)(=O)CC(COc3ccccc3)C(=O)O)cc2)cc1 (stereo not shown) [Example 35, 3-[[4-[(4-cyanobenzoyl)amino]phenyl]sulfonyl]-2-(phenoxymethyl)propanoic acid] | –
3.9 nM | 6290 nM | O=C(O)C(CSc1ccccn1)CS(=O)(=O)c1ccc(-c2ccc(Cl)cc2)cc1 (stereo not shown) [Example 20, 3-[(4′-chloro[1,1′-biphenyl]-4-yl)sulfonyl]-2-[(2-pyridinylsulfanyl)methyl]propanoic acid] | –
3.7 nM | 3600 nM | CN1C(=O)N(CC(CS(=O)(=O)c2ccc(-c3ccc(Cl)cc3)cc2)C(=O)O)C(=O)C1(C)C (single isomer, unassigned) [6, Isomer 1] | –
2.4 nM | 54000 nM | O=C(Nc1ccc(S(=O)(=O)CC(COc2ccccc2)C(=O)O)cc1)c1ccc(Cl)cc1 (stereo not shown) [Example 34, 3-[[4-[(4-chlorobenzoyl)amino]phenyl]sulfonyl]-2-(phenoxymethyl)propanoic acid] | –
1.4 nM | 50600 nM | O=C(Nc1ccc(S(=O)(=O)CC(CSc2ccccc2)C(=O)O)cc1)c1ccc(Cl)cc1 (stereo not shown) [Example 21, 3-[[4-[(4-chlorobenzoyl)amino]phenyl]sulfonyl]-2-[(phenylsulfanyl)methyl]-propanoic acid] | –
